Assay [1] deals with PD-1. The assay can be described thus: PD-1 expression on NK cell surface, by FACS. The note with it: PB derived NK cells; SR1 10-1000 nM, 14 and 21 days, vs cytokines only; FIG. 4B. Format: cell-based, human. The text has this: (§1) For FACS analysis cells were stained with the following fluorescent antibodies: CD15 FITC, Cat. No. 332778, CD14 FITC, Cat. No. 345784, CD3 APC, Cat. No. 345767, all from Becton Dickinson (San Jose, Calif., USA), CD62L PE, Cat. No. 304806 from BioLegend (San Diego, Calif., USA), CD56 FITC, Cat. No. 11-0569-42 from eBioscience (San Diego, Calif., USA) and CD45 PE, Cat. No. R7807 from Dako (Glostrup, Denmark) and anti-CD200R and anti-PD-1 fluorescent antibodies. The cells were washed with a PBS solution containing 1% BSA, and stained (at 4° C. for 30 min) with fluorescein isothiocyanate (FITC)- or phycoerythrin (PE)-conjugated antibodies or allophycocyanin (APC). The cells were then washed in the above buffer and analyzed using a FACScalibur® flow cytometer (Becton Dickinson, San Jose, Calif., USA). The cells were passed at a rate of up to 1000 cells/second, using a 488 nm or 661 nm argon laser beam as the light source for excitation. Emission of 10^4 cells was measured using logarithmic amplification, and analyzed using the CellQuest software (Becton Dickinson). Cells stained with FITC, PE and APC-conjugated isotype control antibodies were used to determine background fluorescence. […] NK cells were stained with specific antibodies for the specified surface markers (CD62L, CD200R, PD-1) after 3 weeks incubation with SR1, and then monitored by FACS.

Assay [2] has as its system CD62L. The assay can be described thus: CD62L expression on NK cell surface, by FACS. The note with it: PB derived NK cells; SR1 10-1000 nM, 14 and 21 days, vs cytokines only; FIG. 3. In kind it is cell-based, human.
Excerpt: as §1

Assay [3] has as its system CD200R. The assay can be described thus: CD200R expression on NK cell surface, by FACS. The note with it: PB derived NK cells; SR1 10-1000 nM, 14 and 21 days, vs cytokines only; FIG. 4A. Format: cell-based, human.
Excerpt: as §1

Assay [4] concerns CD3+CD56− cells. In words: T-cell fraction (CD3+CD56-) in cultures of T-cell depleted peripheral blood NK cells, by FACS. Format: cell-based, human. The note with it: 21 day cultures; SR1 10 to 1000 nM vs cytokines only (SR1 0); FIG. 2. The protocol:
For depletion procedure, total nuclear cells from umbilical cord blood (CB), bone marrow (BM) or peripheral blood (PB) cells were layered on a Ficoll-Hypaque gradient (1.077 g/mL; Sigma), and centrifuged at 800×g for 30 minutes for separation of the mononuclear cells. The cells in the interface layer were collected and washed three times in phosphate-buffered saline (PBS) (Biological Industries, Israel) containing 0.5% HSA. Optionally, cells are not separated on the Ficoll-Hypaque gradient but washed three times in phosphate-buffered saline (PBS) (Biological Industries) containing 0.5% HSA (“total mononuclear fraction”). CD3 cells were depleted using the CD3 cell isolation kit (Miltenyi Biotec Bergisch, Gladbach, Germany) and the entire CD3 negative cell fraction was cultured. […] After negative depletion the cells were counted and characterized by FACS analysis. […] To estimate number of cells in culture, cell samples were counted following staining with trypan blue. […] The cells were then washed in the above buffer and analyzed using a FACScalibur® flow cytometer (Becton Dickinson, San Jose, Calif., USA). […] Emission of 10^4 cells was measured using logarithmic amplification, and analyzed using the CellQuest software (Becton Dickinson). Cells stained with FITC, PE and APC-conjugated isotype control antibodies were used to determine background fluorescence.

Assay [5] deals with human peripheral blood NK cells. In words: Ex-vivo expansion of T-cell depleted peripheral blood NK cells in culture with cytokines. In kind it is cell-based. The procedure: For depletion procedure, total nuclear cells from umbilical cord blood (CB), bone marrow (BM) or peripheral blood (PB) cells were layered on a Ficoll-Hypaque gradient (1.077 g/mL; Sigma), and centrifuged at 800×g for 30 minutes for separation of the mononuclear cells. The cells in the interface layer were collected and washed three times in phosphate-buffered saline (PBS) (Biological Industries, Israel) containing 0.5% HSA. Optionally, cells are not separated on the Ficoll-Hypaque gradient but washed three times in phosphate-buffered saline (PBS) (Biological Industries) containing 0.5% HSA (“total mononuclear fraction”). CD3 cells were depleted using the CD3 cell isolation kit (Miltenyi Biotec Bergisch, Gladbach, Germany) and the entire CD3 negative cell fraction was cultured. […] After negative depletion the cells were counted and characterized by FACS analysis. […] To estimate number of cells in culture, cell samples were counted following staining with trypan blue. […] In order to calculate the number of NK cells on day 0, the total number of cells seeded on day 0 was multiplied by the percent of CD56+/CD3− cells measured by the FACS on day 0. […] In order to determine the number of NK cells in culture, the total number of cells in culture was multiplied by the percent of CD56+/CD3− cells measured with the FACS on days 14 or 21. […]

The subject of assay [6] is human NK cells. The assay can be described thus: In-vivo homing and engraftment of cultured, CFSE-stained human NK cells in spleen of irradiated NSG mice. Further details: species or system NOD.Cg-Prkdcscid Il2rgtm1Wjl/SzJ (NSG) mice. The note with it: 15×10^6 NK cells cultured 2-3 weeks with SR1 vs without; irradiated (350 Rad) NSG mice; 4 days post infusion; FIG. 5. The protocol: NK cells were expanded with or without 1000 nM SR1, as described above. After 2 weeks in culture, cells were stained with CFSE and similar numbers (15×10^6) of cells were infused into irradiated (350 Rad) NSG mice. Mice were sacrificed 4-days post infusion. Spleens were analyzed for the homing and engraftment of human NK cells based on the CFSE fluorescence, in order to distinguish them from endogenous cells. Engraftment is expressed as the % of cells staining with CFSE. Irradiated (350 Rad) NOD.Cg-Prkdcscid Il2rgtm1Wjl/SzJ (NSG) mice received 15×10^6 cells from human peripheral blood NK (T-cell depleted) cultures maintained for up to 3 weeks with SR1 or without (SR1 0) SR1. Prior to infusion NK cells were stained with CFSE. Upon sacrifice of the mice 4 days post infusion, samples of spleen were evaluated by FACS for the percent of cells that are stained with CFSE.

Entries after “also recorded” stand apart in the source; their conditions may differ.

`CC(C)n1cnc2c(NCCc3ccc(O)cc3)nc(-c3csc4ccccc34)nc21` [SR1, 4-(2-(2-(benzo[b]thiophen-3-yl)-9-isopropyl-9H-purin-6-ylamino)ethyl)phenol]: the “expression of PD-1” value in assay [1] is “reduced expression”. Also, in assay [2], the “expression of CD62L” value is on record as “dramatically enhanced expression; also recorded: strongly enhanced expression”. Further, in assay [3], the “expression of CD200R” value was “reduced expression”. In addition, the “percentages of CD3+CD56− cells (T-cell fraction)” value in assay [4] is “less prominent than in control; also recorded: lower than in control cultures”. For the same compound, the “cells in culture that were NK (CD56+CD3-) cells” value in assay [5] (CD3+ or CD3+/CD19+ depleted peripheral blood mononuclear cells (2-10% NK at seeding), 2-3 weeks in culture with SR1) was “more than 90%”. For the same compound, the “NK expansion (fold increase relative to day 0)” value in assay [5] (day 21, SR1 10-1000 nM with cytokines (IL-2, IL-15) vs cytokines only (SR1 0), FIG. 1) is on record as “greatly increased expansion; also recorded: significantly higher”. The “homing and engraftment into spleen (% of cells staining with CFSE)” value in assay [6] was “significantly higher; also recorded: increased localization and engraftment”.

Source of the values: patent US9175266B2, “Enhancement of natural killer (NK) cell proliferation and activity” (Gamida Cell Ltd., priority 2012, dated 2015).
